Data as given in patent US5342604A (The Dow Chemical Company, priority 1992, dated 1994).
Where two headings read alike, the source gives them in different places.

Experiments:
[1] = Lability of yttrium complexes on addition of excess metal; type: physicochemical; settings: Y
Protocol: (§1) A disposable 10 ml plastic (Biorad) column was filled with 1 to 2 ml of water-swelled Sephadex™ C-25 cation exchange resin. The water was pressure eluted to the top of the resin. Fifteen μl of the complex (or more if counts were low) were added to the top of the resin. This was followed by 2 ml of 4:1 (V:V) isotonic saline:conc. ammonium hydroxide solution as an eluent which was allowed to drip into a counting tube. This was also pressure eluted to the top of the resin. An additional 2 ml of the eluent were added and the column pressure eluted to remove all liquid. The dried resin was then placed in a third counting tube and the three tubes counted on a NaI well counter using a Canberra multichannel analyzer linked to a computer. The percent complex was determined by dividing the number of counts in the two elutions by the total counts in the elutions plus the column, all times 100. By this method, uncomplexed yttrium was retained on the column.
The 1:1 complex of yttrium with 1-(p-aminobenzyl)diethylenetriaminepentaacetic acid (ABDTPA), a well known bifunctional chelant used in the literature, and with the ligand of Example 2 (Now Ex. XVI) and Example 12 (now Ex. XVII) were prepared using the techniques described earlier. Several 100 microliter aliquots were then withdrawn into separate centrifuge tubes. Excess metal was added such that the total volume change is minimized and the time noted. One-half hour after metal addition, the percent complex was determined by the Sephadex™ C-25 method and this was compared to the original amount of complex. The percent complex versus added metal gives an indication as to the lability of the ligand-metal complex. Results are given below and are compared to the EDTA-yttrium complex.

[2] = Inertness of antibody-complex conjugates challenged with excess DTPA; type: physicochemical; settings: 1000 fold molar excess of DTPA, pH 7.4, one hour
Protocol: The purified antibody-complexes were added to HEPES buffer (N-2-hydroxyethylpiperazine-N'-2-ethanesulfonic acid) at pH 7.4 and treated with an appropriate amount of 0.1M DTPA solution (pH 7.4) to ensure a 1000 fold molar excess of DTPA over complex attached to antibody. After one hour an aliquot was removed and the antibody-complex conjugates were separated from low molecular weight substances using gel-filtration.

[3] = In vivo screening of bifunctional chelates: biodistribution, percent injected dose in liver; settings: rat, i.v. tail vein, 2 hours
[4] = cited from earlier work
[5] = Biodistribution in rabbit; type: in vivo; settings: Y-90, 10 times molar excess ligand
Protocol: Muscle was calculated using 46% of body weight.
A rabbit was injected in the same manner as the rats with a formulation having Y-90 with Y at 3×10^-4 M and the ligand of Example 10 at 10 times molar excess.

Biodistribution in rats = settings: 2 hours
[6] = Percent complex determination, yttrium complexes (Sephadex C-25 cation exchange); type: physicochemical; settings: Y
Protocol: The yttrium and/or samarium complexes of several of the compounds were prepared and percent complexation determined as follows:
Complexes were made by preparing a 0.0003M yttrium solution in water. (YCl3 ·6H2 O, 303.26 g/mole; Y(OAc)3, 12.1% H2 0). Radioactive YCl3 (Oakridge National Laboratories) was added to give the desired number of counts. Ten μl of ligand solution (at 0.03M) were added to 990 μl of the Y solution, giving a ligand-to-metal ratio of 1:1. (Ten times the amount of ligand solution was used for a 10:1 ligand to metal ratio.) The pH was then adjusted to 7.4 using microliter quantities of hydrochloric acid or sodium hydroxide. The solution was then tested for the amount of complexed yttrium using the cation exchange method given below.
as §1

[7] = system: osteosarcoma in the right proximal humerus; test: Treatment of a dog with osteosarcoma; type: in vivo; settings: Sm-153, 300 times molar excess ligand, I.V. 0.95 mCi/Kg, one week after injection
Protocol: A dog was presented with an osteosarcoma in the right proximal humerus and walked with significant lameness. A complex was prepared using the ligand of Example 10 with a Sm-153 solution. The concentration of Sm was 3×10^-4 M and the ligand was used with a 300 times molar excess. The specific activity of the Sm-153 was 30 mCi/ml. The dog was given an I.V. injection of this complex containing 0.95 mCi of Sm-153 per Kg body weight of the dog.

[8] = Percent complex determination, samarium complexes (Sephadex C-25 cation exchange); type: physicochemical; settings: Sm
Protocol: as §1, with “100.” for “100. By this method, uncomplexed yttrium was retained on the column.”
Samarium complexes were formed as described previously for yttrium complexes except that 0.0003M samarium was prepared by dissolution of Sm2 03 (348.7 g mole) in 0.1M hydrochloric acid. […] Percent complex determination was made in the same manner as for the yttrium complex.

[9] = radionuclide; cited from earlier work
[10] = Metal/Ligand Molar Ratio 10, one-half hour after metal addition
[11] = Metal/Ligand Molar Ratio 100, one-half hour after metal addition
[12] = Metal/Ligand Molar Ratio 250, one-half hour after metal addition
[13] = Metal/Ligand Molar Ratio 500, one-half hour after metal addition
[14] = Ho-166, 300 times molar excess ligand
[15] = Sm-153, 10 times molar excess ligand
[16] = Sm-153, 300 times molar excess ligand

Nc1ccc(CC(CN(CCN(CC(=O)O)CC(=O)O)CC(=O)O)N(CC(=O)O)CC(=O)O)cc1 (centres unmarked) [ABDTPA, 1-(p-aminobenzyl)diethylenetriaminepentaacetic acid]
% Complex ([1]; Metal/Ligand Molar Ratio 1): 97%
% Complex [1, 10]: 95%
% Complex [1, 11]: 92%
% Complex [1, 12]: 87%
% Complex [1, 13]: 70%
yttrium lost from antibody-complex conjugate [2]: over 98%

O=C(O)CN(CCN(CC(=O)O)CC(=O)O)CC(=O)O [EDTA, ethylenediaminetetraacetic acid]
% Injected Dose in Liver ([3]; Sm, ligand/metal 5:1): 8.4%
% Injected Dose in Liver ([3]; Sm, ligand/metal about 300:1): 4.4%
% Complex ([1]; Metal/Ligand Molar Ratio 1): 98%
% Complex [1, 10]: 86%
% Complex [1, 11]: 78%
% Complex [1, 12]: 48%
% Complex [1, 13]: 16%
concentrations of radioactivity in organs ([4]; Sc-46, Y-91, La-140, Sm-153, chelant to metal 5:1): high concentrations of radioactivity were observed in the liver, spleen, kidney, lung and bone

CC(=O)Nc1cc(C(C(=O)O)N(CC(=O)O)CC(=O)O)c(O)c(C(C(=O)O)N(CC(=O)O)CC(=O)O)c1 (centres unmarked) [Example 10, 2,6-BIS{[BIS(CARBOXYMETHYL)AMINO](CARBOXY)METHYL}-4-(ACETAMIDO) PHENOL]
% Injected Dose in Liver ([3]; Ho, (300)): 0.26%
% Injected Dose in Liver ([3]; Sm, (300)): 0.12%
% Injected Dose in Liver ([3]; Sm, ligand/metal 10:1): 1.3%
% Injected Dose in Liver ([3]; Y, ligand/metal 10:1): 0.39%
biodistribution, blood (% dose) [5]: 0.68%
biodistribution, bone (% dose) [5]: 59%
biodistribution, liver (% dose) [5]: 1.1%
biodistribution, muscle (% dose) [5]: 1.5%
biodistribution, spleen (% dose) [5]: 0.19%
biodistribution, blood (% dose) (Biodistribution in rats; [14]): 0.09%
biodistribution, bone (% dose) (Biodistribution in rats; [14]): 52.9%
biodistribution, liver (% dose) (Biodistribution in rats; [14]): 0.26%
biodistribution, muscle (% dose) (Biodistribution in rats; [14]): 1.1%
biodistribution, spleen (% dose) (Biodistribution in rats; [14]): 0.007%
biodistribution, blood (% dose) (Biodistribution in rats; [15]): 0.18%
biodistribution, bone (% dose) (Biodistribution in rats; [15]): 48.5%
biodistribution, liver (% dose) (Biodistribution in rats; [15]): 1.3%
biodistribution, muscle (% dose) (Biodistribution in rats; [15]): 0.73%
biodistribution, spleen (% dose) (Biodistribution in rats; [15]): 0.01%
biodistribution, blood (% dose) (Biodistribution in rats; [16]): 0.05%
biodistribution, bone (% dose) (Biodistribution in rats; [16]): 52.7%
biodistribution, liver (% dose) (Biodistribution in rats; [16]): 0.12%
biodistribution, muscle (% dose) (Biodistribution in rats; [16]): 0.23%
biodistribution, spleen (% dose) (Biodistribution in rats; [16]): 0.005%
% Complex ([6]; ligand/metal 10:1): 98%
dog's gait [7]: noticeably improved

Nc1cc(CN(CCN(CC(=O)O)CC(=O)O)CC(=O)O)c(O)c(CN(CCN(CC(=O)O)CC(=O)O)CC(=O)O)c1 [Example 12]
% Complex ([8]; ligand/metal 10:1): 98%
% Complex ([8]; ligand/metal ratio about 1:1): 98%
% Complex ([1]; Metal/Ligand Molar Ratio 1): 95%
% Complex [1, 10]: 93%
% Complex [1, 11]: 90%
% Complex [1, 12]: 90%
% Complex [1, 13]: 79%
% Complex ([6]; ligand/metal 10:1): 99%
% Complex ([6]; ligand/metal ratio about 1:1): 98%
yttrium lost from antibody-complex conjugate [2]: approximately 39%

O=C(O)CN(CC(=O)O)CC(=O)O [NTA, nitrilotri-acetic acid, reference compound]
% Injected Dose in Liver ([3]; Sm, ligand/metal about 300:1): 8.6%
concentrations of radioactivity in organs ([4]; mouse, in vivo): high concentrations of radioactivity were observed in the liver, spleen, kidney, lung and bone

[89Sr] [Strontium-89]
half-life [9]: 50.4 days
